From PMC5428509, “Irreversible inhibition of BTK kinase by a novel highly selective inhibitor CHMFL-BTK-11 suppresses inflammatory response in rheumatoid arthritis model” (Scientific Reports, 2017)

Key:
Assay in all cases: biochemical
Design in all cases: KinomeScan competition binding panel (DiscoveRx), percent of control at 1 uM
Settings in all cases: read-out: Percent Control
[1] = target: T1, ABL1(F317I)-phosphorylated (Homo sapiens, UniProt P00519, F317I)
T1 construct: phosphorylated
From the text: (§1) In order to further confirm the binding mode, we then tested the compounds in the BTK wild-type (wt) and BTK C481S mutant with immunoblotting by looking at the BTK Y551 auto-phosphorylation. […] In addition, a covalent bond was preferred to form between the […] acrylamide and Cys-481 near the hinge binding area, which further confirmed its irreversible binding mode (Fig. 1d). We next investigated CHMFL-BTK-11′s selectivity profile in 456 kinases/mutants with KinomeScan^TM technology.

ABL1-phosphorylated = target: T2, ABL1-phosphorylated (Homo sapiens, UniProt P00519)
T2 construct: phosphorylated
From the text: as §1

ACVRL1 = ACVRL1 (Homo sapiens, UniProt P37023)
From the text: as §1

ADCK3 = target: T3, ADCK3 (Homo sapiens, UniProt Q8NI60)
T3 construct: gene COQ8A
From the text: as §1

ALK(C1156Y) = ALK(C1156Y) (Homo sapiens, UniProt Q9UM73, C1156Y)
From the text: as §1

ALK(L1196M) = ALK(L1196M) (Homo sapiens, UniProt Q9UM73, L1196M)
From the text: as §1

BRAF = BRAF (Homo sapiens, UniProt P15056)
Chain of BRAF (P15056 whole entry): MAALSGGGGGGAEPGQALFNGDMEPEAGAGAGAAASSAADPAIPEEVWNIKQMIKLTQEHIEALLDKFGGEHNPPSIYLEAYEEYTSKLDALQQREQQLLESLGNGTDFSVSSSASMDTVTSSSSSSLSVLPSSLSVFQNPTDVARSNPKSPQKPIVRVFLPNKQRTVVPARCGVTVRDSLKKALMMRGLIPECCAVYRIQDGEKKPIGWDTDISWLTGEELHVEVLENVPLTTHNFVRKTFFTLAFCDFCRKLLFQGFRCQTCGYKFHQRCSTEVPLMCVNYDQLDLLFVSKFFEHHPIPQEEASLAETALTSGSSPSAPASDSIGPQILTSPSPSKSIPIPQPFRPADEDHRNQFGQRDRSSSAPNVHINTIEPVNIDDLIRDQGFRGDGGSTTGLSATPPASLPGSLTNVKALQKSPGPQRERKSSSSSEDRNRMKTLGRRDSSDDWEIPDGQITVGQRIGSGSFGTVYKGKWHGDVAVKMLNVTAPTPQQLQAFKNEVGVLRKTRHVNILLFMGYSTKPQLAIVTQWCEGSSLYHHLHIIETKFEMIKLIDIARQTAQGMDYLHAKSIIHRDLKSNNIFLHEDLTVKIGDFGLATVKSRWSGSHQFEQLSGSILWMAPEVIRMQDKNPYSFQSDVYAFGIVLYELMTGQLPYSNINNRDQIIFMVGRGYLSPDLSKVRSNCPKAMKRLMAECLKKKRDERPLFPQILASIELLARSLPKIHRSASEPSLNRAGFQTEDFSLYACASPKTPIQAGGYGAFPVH
From the text: as §1

EGFR(L861Q) = EGFR(L861Q) (Homo sapiens, UniProt P00533, L861Q)
Chain of EGFR(L861Q) (P00533 whole entry L861Q): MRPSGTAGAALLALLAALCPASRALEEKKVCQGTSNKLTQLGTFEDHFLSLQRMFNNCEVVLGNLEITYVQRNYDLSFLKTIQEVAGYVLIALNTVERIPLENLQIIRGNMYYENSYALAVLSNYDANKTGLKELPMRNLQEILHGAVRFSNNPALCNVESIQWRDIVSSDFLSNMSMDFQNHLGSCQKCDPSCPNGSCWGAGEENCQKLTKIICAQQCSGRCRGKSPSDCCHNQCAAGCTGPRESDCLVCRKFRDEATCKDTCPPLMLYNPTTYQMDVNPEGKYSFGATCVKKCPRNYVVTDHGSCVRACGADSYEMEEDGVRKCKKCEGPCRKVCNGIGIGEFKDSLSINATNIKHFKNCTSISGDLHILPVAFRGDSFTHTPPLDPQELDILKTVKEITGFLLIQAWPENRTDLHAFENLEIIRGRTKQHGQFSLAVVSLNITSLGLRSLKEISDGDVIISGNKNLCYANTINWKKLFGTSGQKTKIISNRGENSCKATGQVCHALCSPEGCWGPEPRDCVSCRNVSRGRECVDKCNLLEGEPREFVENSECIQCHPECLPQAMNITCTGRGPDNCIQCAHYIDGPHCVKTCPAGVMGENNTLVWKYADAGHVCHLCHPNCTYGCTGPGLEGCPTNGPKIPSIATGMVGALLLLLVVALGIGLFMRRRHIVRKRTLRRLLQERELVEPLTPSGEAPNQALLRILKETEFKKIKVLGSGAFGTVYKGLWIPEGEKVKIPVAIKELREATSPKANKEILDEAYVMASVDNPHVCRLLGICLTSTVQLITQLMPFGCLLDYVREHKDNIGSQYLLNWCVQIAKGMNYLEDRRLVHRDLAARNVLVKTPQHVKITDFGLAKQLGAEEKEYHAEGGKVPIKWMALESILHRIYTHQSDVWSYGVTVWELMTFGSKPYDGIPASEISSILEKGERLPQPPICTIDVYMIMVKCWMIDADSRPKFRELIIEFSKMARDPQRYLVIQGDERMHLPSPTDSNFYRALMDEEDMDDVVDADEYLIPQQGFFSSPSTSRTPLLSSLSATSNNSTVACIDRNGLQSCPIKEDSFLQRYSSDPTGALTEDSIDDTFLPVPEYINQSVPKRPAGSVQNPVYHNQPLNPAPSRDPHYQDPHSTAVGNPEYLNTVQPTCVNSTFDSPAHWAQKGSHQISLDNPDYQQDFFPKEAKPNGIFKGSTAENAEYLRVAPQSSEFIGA
From the text: as §1

FGR = FGR (Homo sapiens, UniProt P09769)
From the text: as §1

GRK1 = GRK1 (Homo sapiens, UniProt Q15835)
Chain of GRK1 (Q15835 whole entry): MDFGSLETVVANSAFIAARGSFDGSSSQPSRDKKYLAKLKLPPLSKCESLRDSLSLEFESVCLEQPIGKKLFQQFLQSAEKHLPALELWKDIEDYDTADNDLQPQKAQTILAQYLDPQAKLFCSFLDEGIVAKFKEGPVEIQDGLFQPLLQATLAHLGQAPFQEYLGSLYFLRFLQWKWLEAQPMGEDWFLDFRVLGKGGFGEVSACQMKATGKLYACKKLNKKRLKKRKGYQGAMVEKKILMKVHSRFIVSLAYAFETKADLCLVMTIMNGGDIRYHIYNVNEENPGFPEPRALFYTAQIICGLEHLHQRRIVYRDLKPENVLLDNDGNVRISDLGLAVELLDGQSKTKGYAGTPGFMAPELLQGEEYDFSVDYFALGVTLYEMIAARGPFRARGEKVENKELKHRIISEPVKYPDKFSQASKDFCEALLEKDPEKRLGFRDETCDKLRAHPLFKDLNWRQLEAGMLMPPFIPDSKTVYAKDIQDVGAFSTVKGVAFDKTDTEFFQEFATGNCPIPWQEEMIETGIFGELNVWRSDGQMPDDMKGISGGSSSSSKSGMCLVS
From the text: as §1

GRK4 = GRK4 (Homo sapiens, UniProt P32298)
From the text: as §1

IKK-epsilon = target: T4, IKK-epsilon (Homo sapiens, UniProt Q14164)
T4 construct: gene IKBKE
From the text: as §1

IRAK4 = IRAK4 (Homo sapiens, UniProt Q9NWZ3)
From the text: as §1

KIT(L576P) = KIT(L576P) (Homo sapiens, UniProt P10721, L576P)
Chain of KIT(L576P) (P10721 whole entry L576P): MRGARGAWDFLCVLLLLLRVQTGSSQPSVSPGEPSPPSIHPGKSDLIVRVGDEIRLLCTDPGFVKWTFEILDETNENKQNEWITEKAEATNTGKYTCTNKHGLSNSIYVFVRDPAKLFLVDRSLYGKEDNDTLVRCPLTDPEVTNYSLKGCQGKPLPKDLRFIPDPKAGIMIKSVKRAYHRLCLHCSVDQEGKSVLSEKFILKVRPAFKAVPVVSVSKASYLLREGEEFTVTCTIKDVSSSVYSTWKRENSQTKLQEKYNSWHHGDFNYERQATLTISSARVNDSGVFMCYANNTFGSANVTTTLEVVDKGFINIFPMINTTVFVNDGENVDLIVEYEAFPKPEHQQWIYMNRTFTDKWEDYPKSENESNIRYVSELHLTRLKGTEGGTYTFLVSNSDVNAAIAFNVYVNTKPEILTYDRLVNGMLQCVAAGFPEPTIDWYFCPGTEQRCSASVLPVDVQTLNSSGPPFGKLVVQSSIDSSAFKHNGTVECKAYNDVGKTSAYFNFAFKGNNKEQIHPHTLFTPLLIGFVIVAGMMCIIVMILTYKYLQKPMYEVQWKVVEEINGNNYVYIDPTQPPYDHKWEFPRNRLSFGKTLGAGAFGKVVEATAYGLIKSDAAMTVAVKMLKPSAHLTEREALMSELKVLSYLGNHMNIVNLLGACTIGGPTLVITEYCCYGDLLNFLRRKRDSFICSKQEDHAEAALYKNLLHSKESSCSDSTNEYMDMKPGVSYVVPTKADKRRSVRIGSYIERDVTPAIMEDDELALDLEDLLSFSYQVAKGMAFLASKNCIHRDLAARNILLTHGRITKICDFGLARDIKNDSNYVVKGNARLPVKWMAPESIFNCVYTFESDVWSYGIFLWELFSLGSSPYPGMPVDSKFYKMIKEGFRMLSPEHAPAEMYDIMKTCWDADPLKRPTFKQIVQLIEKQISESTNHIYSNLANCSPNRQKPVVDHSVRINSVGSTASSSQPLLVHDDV
From the text: as §1

MAK = MAK (Homo sapiens, UniProt P20794)
From the text: as §1

MET(M1250T) = MET(M1250T) (Homo sapiens, UniProt P08581, M1250T)
From the text: as §1

NEK4 = NEK4 (Homo sapiens, UniProt P51957)
From the text: as §1

PIK3CD = PIK3CD (Homo sapiens, UniProt O00329)
From the text: as §1

PIP5K2C = target: T5, PIP5K2C (Homo sapiens, UniProt Q8TBX8)
T5 construct: gene PIP4K2C
T5 sequence (Q8TBX8 whole entry): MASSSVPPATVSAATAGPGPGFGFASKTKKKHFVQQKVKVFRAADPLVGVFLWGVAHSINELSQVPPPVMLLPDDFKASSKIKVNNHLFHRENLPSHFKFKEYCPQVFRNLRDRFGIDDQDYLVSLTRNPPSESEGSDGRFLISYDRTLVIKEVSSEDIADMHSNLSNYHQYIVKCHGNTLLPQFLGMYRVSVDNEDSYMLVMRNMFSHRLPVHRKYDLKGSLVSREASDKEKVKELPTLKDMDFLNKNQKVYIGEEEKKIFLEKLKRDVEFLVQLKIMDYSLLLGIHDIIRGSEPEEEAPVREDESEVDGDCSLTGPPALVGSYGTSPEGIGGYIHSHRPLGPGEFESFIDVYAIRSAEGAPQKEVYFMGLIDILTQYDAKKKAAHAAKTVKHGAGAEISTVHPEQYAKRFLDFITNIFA
From the text: as §1

PRP4 = target: T6, PRP4 (Homo sapiens, UniProt Q13523)
T6 construct: gene PRPF4B
From the text: as §1

PYK2 = target: T7, PYK2 (Homo sapiens, UniProt Q14289)
T7 construct: gene PTK2B
From the text: as §1

SIK = target: T8, SIK (Homo sapiens, UniProt P57059)
T8 construct: gene SIK1
T8 sequence (P57059 whole entry): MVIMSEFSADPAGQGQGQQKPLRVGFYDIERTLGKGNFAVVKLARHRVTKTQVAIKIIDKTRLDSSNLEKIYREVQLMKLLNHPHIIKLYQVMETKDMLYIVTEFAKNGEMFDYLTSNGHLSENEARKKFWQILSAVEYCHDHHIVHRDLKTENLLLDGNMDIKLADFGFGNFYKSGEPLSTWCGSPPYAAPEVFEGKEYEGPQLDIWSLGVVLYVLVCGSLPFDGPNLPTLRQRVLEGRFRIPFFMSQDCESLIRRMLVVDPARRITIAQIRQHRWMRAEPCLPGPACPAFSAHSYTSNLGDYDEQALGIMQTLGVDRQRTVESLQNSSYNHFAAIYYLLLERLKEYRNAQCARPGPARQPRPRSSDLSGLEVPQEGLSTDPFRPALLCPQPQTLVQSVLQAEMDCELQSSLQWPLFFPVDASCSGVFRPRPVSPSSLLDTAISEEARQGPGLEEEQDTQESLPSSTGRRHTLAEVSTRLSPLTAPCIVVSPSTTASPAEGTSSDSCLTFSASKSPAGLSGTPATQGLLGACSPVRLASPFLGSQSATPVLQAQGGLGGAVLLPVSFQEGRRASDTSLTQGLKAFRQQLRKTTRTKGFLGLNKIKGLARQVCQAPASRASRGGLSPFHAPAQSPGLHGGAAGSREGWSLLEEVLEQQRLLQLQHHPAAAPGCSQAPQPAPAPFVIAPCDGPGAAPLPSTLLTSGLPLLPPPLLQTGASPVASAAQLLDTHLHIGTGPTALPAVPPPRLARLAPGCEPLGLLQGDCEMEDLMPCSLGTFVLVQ
From the text: as §1

SRMS = SRMS (Homo sapiens, UniProt Q9H3Y6)
From the text: as §1

STK16 = STK16 (Homo sapiens, UniProt O75716)
Chain of STK16 (O75716 whole entry): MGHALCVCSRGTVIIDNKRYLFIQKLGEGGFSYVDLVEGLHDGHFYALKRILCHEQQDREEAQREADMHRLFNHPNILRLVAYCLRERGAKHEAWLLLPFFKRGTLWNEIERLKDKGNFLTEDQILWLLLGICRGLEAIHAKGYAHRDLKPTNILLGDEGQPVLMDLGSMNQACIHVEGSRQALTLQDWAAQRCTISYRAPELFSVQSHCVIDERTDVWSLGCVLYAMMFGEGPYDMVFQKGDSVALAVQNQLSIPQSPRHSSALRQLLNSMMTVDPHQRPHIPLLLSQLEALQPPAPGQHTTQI
From the text: as §1

p38-beta = target: T9, p38-beta (Homo sapiens, UniProt Q15759)
T9 construct: gene MAPK11
From the text: as §1

C=CC(=O)Nc1cc(-n2c(=O)ccc3cnc4ccc(-n5cccn5)cc4c32)ccc1C [CHMFL-BTK-11]
remaining binding at 1 µM [1]: 100% | remaining binding at 1 µM (ABL1-phosphorylated): 78% | remaining binding at 1 µM (ACVRL1): 90% | remaining binding at 1 µM (ADCK3): 96% | remaining binding at 1 µM (ALK(C1156Y)): 94% | remaining binding at 1 µM (ALK(L1196M)): 88% | remaining binding at 1 µM (BRAF): 93% | remaining binding at 1 µM (EGFR(L861Q)): 71% | remaining binding at 1 µM (FGR): 100% | remaining binding at 1 µM (GRK1): 71% | remaining binding at 1 µM (GRK4): 94% | remaining binding at 1 µM (IKK-epsilon): 96% | remaining binding at 1 µM (IRAK4): 82% | remaining binding at 1 µM (KIT(L576P)): 100% | remaining binding at 1 µM (MAK): 100% | remaining binding at 1 µM (MET(M1250T)): 100% | remaining binding at 1 µM (NEK4): 100% | remaining binding at 1 µM (PIK3CD): 100% | remaining binding at 1 µM (PIP5K2C): 90% | remaining binding at 1 µM (PRP4): 93% | remaining binding at 1 µM (PYK2): 100% | remaining binding at 1 µM (SIK): 100% | remaining binding at 1 µM (SRMS): 88% | remaining binding at 1 µM (STK16): 91% | remaining binding at 1 µM (p38-beta): 100%
